Assay results reported in patent publication US20230066946A1, “1,5-DIPHENYLPYRAZOLYL-3-OXYALKYL ACIDS AND 1-PHENYL-5-THIENYLPYRAZOLYL-3-OXYALKYL ACIDS AND THE USE THEREOF FOR CONTROL OF UNWANTED PLANT GROWTH” (Bayer Aktiengesellschaft, priority 2019, published 2023).

Tests used:
ALOMY [1] = test: Post-emergence herbicidal action against ALOMY; type: in vivo, Alopecurus myosuroides; conditions: 1280 g/ha, post-emergence at one-leaf stage, rated visually after about 3 weeks vs untreated controls
Procedure: (§1) [table] Seeds of mono- and dicotyledonous weed plants are placed in plastic pots in sandy loam soil (twin sowing with one species each of mono- or dicotyledonous weed plants per pot), covered with soil and cultivated in a greenhouse under controlled growth conditions. 2 to 3 weeks after sowing, the test plants are treated at the one-leaf stage. The compounds of the invention, formulated in the form of wettable powders (WP) or as emulsion concentrates (EC), are applied to the green parts of the plants as aqueous suspension or emulsion with addition of 0.5% additive at a water application rate equivalent to 600 litres per hectare. After the test plants have been kept in the greenhouse under optimum growth conditions for about 3 weeks, the activity of the preparations is rated visually in comparison to untreated controls. For example, 100% activity=the plants have died, 0% activity=like control plants. Tables 5.1-5.16 below show the effects of selected compounds of the general formula (I) according to Tables 1 to 3 on various harmful plants at an application rate corresponding to 1280 or 320 g/ha, which have been obtained by the aforementioned experimental method.

STEME [2] = test: Post-emergence herbicidal action against STEME; type: in vivo, Stellaria media; conditions: visual rating about 3 weeks after treatment
In short: (§2)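 Each pot held twin-sown weeds in sandy loam, treated post-emergence 2 to 3 weeks after sowing at the one-leaf stage. Compound was given as a foliar spray at 1280 or 320 g/ha in 600 litres per hectare water with 0.5% additive. Visual scoring against untreated controls followed after about 3 weeks.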

PHBPU = test: Post-emergence herbicidal action against PHBPU; type: in vivo, Pharbitis purpurea; conditions: 320 g/ha, visual rating about 3 weeks after treatment
In short: as §2

AMARE [3] = test: Post-emergence herbicidal action against AMARE; type: in vivo, Amaranthus retroflexus; conditions: visual rating about 3 weeks after treatment
In short: as §2

harmful plants [4] = test: Post-emergence herbicidal action, summary of Tables 5.1-5.16; type: in vivo; conditions: result in words
Procedure: as §1, with “Seeds” for “[table] Seeds”, “method. As the results from Tables 5.1-5.16 show, compounds of the invention have good herbicidal post-emergence efficacy against a broad spectrum of weed grasses and weeds. […] For example, compounds Nos. I-002, I-006, I-022, I-056 and I-072 applied by the post-emergence method have very good herbicidal action (80% to 100% herbicidal action) against harmful plants such as Alopecurus myosuroides, Amaranthus retroflexus, Matricaria inodora, Setaria viridis, Pharbitis purpurea and Stellaria media at an application rate of 1.28 kg of active substance or less per hectare.” for “method.”

MATIN [5] = test: Post-emergence herbicidal action against MATIN; type: in vivo, Matricaria inodora; conditions: visual rating about 3 weeks after treatment
In short: as §2

VERPE [6] = test: Post-emergence herbicidal action against VERPE; type: in vivo, Veronica persica; conditions: 320 g/ha, visual rating about 3 weeks after treatment
In short: as §2

SETVI [7] = test: Post-emergence herbicidal action against SETVI; type: in vivo, Setaria viridis; conditions: 1280 g/ha, post-emergence at one-leaf stage, rated visually after about 3 weeks vs untreated controls
In short: as §2

VERPE [8] = test: Pre-emergence herbicidal action against VERPE; type: in vivo, Veronica persica; conditions: 320 g/ha, scored visually after about 3 weeks vs untreated controls
In short: (§3)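 Visual percent activity (100% = plants dead, 0% = like control) scored about 3 weeks after pre-emergence treatment in greenhouse. Compounds as WP or EC, applied to covering soil surface with 0.5% additive, 600 L/ha water, at 1280 or 320 g/ha.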

MATIN [9] = test: Pre-emergence herbicidal action against MATIN; type: in vivo, Matricaria inodora; conditions: 1280 g/ha, scored visually after about 3 weeks vs untreated controls
Excerpt: (§4) Seeds of mono- and dicotyledonous weed plants are placed in plastic pots in sandy loam soil (doubly sown with one species each of mono- or dicotyledonous weed plants per pot) and covered with soil. The compounds of the invention, formulated in the form of wettable powders (WP) or as emulsion concentrates (EC), are then applied onto the surface of the covering soil as aqueous suspension or emulsion with addition of 0.5% additive at a water application rate equivalent to 600 litres per hectare. After the treatment, the pots are placed in a greenhouse and kept under good growth conditions for the trial plants. After about 3 weeks, the effect of the preparations is scored visually in comparison with untreated controls as percentages. For example, 100% activity=the plants have died, 0% activity=like control plants. [table] Tables 4.1-4.15 below show the effects of selected compounds of the general formula (I) according to Tables 1 to 3 on various harmful plants at an application rate corresponding to 1280 or 320 g/ha, which have been obtained by the aforementioned experimental method.

harmful plants [10] = test: Pre-emergence herbicidal action, summary of Tables 4.1-4.15; type: in vivo; conditions: result in words
Excerpt: as §4, with “plants.” for “plants. [table] Tables 4.1-4.15 below show the effects of selected compounds of the general formula (I) according to Tables 1 to 3 on various harmful plants at an application rate corresponding to 1280 or 320 g/ha, which have been obtained by the aforementioned experimental method.”
Tables 4.1-4.15 below show the effects of selected compounds of the general formula (I) according to Tables 1 to 3 on various harmful plants at an application rate corresponding to 1280 or 320 g/ha, which have been obtained by the aforementioned experimental method.
For example, compounds no. I-008, I-056, I-057, I-061, I-067, I-070 and I-072 applied by the pre-emergence method have very good action (80% to 100% herbicidal action) against harmful plants such as Alopecurus myosuroides, Amaranthus retroflexus, Matricaria inodora, Polygonum convolvulus, Setaria viridis and Stellaria media at an application rate of 1.28 kg of active substance or less per hectare.

ECHCG = test: Post-emergence herbicidal action against ECHCG; type: in vivo, Echinochloa crus-galli; conditions: 1280 g/ha, post-emergence at one-leaf stage, rated visually after about 3 weeks vs untreated controls
In short: as §2

AMARE [11] = test: Pre-emergence herbicidal action against AMARE; type: in vivo, Amaranthus retroflexus; conditions: scored visually after about 3 weeks vs untreated controls; for Pre-emergence action at 320 g/ha against AMARE in %: 100% = plants have died, 0% = like control plants; for Pre-emergence action against AMARE in %: 1280 g/ha
In short: as §3

STEME [12] = test: Pre-emergence herbicidal action against STEME; type: in vivo, Stellaria media; conditions: scored visually after about 3 weeks vs untreated controls
In short: as §3

ALOMY [13] = test: Pre-emergence herbicidal action against ALOMY; type: in vivo, Alopecurus myosuroides; conditions: scored visually after about 3 weeks vs untreated controls, 100% = plants have died, 0% = like control plants
Excerpt: as §4

CYPES = test: Pre-emergence herbicidal action against CYPES; type: in vivo, Cyperus esculentus; conditions: scored visually after about 3 weeks vs untreated controls, 100% = plants have died, 0% = like control plants
Excerpt: as §4

SETVI [14] = test: Pre-emergence herbicidal action against SETVI; type: in vivo, Setaria viridis; conditions: 1280 g/ha, scored visually after about 3 weeks vs untreated controls
In short: as §3

POLCO [15] = test: Pre-emergence herbicidal action against POLCO; type: in vivo, Polygonum convolvulus; conditions: 320 g/ha, scored visually after about 3 weeks vs untreated controls
In short: as §3

POLCO [16] = test: Post-emergence herbicidal action against POLCO; type: in vivo, Polygonum convolvulus; conditions: 320 g/ha, visual rating about 3 weeks after treatment
In short: as §2

| Compound | Post-emergence action against ALOMY in % (ALOMY [1]) [%] | Post-emergence action against STEME in % (STEME [2]; 320 g/ha) [%] | Post-emergence action against STEME in % (STEME [2]; 1280 g/ha) [%] | Post-emergence action against PHBPU in % (PHBPU) [%] | Post-emergence action against AMARE in % (AMARE [3]; 320 g/ha) [%] | Post-emergence action against AMARE in % (AMARE [3]; 1280 g/ha) [%] | herbicidal efficacy against harmful plants when applied post-emergence (harmful plants [4]) | Post-emergence action against MATIN in % (MATIN [5]; 1280 g/ha) [%] | Post-emergence action against VERPE in % (VERPE [6]) [%] | Post-emergence action against SETVI in % (SETVI [7]) [%] | Pre-emergence action against VERPE in % (VERPE [8]) [%] | Pre-emergence action against MATIN in % (MATIN [9]) [%] | herbicidal efficacy against harmful plants in the case of pre-emergence treatment (harmful plants [10]) | Pre-emergence action at 320 g/ha against AMARE in % (AMARE [11]) [%] | Pre-emergence action against AMARE in % (AMARE [11]) [%] | Pre-emergence action against STEME in % (STEME [12]; 1280 g/ha) [%] | Pre-emergence action at 1280 g/ha against ALOMY in % (ALOMY [13]) [%] | also measured |
| --- | --- | --- | --- | --- | --- | --- | --- | --- | --- | --- | --- | --- | --- | --- | --- | --- | --- | --- |
| COC(=O)COc1nn(-c2ccccc2)c(-c2cccc(F)c2)c1Cl [I-002] | 80 | 80 | 90 | 80 | 80 | 90 | very good herbicidal efficacy | 80 | 80 | 80 | 100 | 100 | good herbicidal efficacy | 100 | 100 | 100 | 80 | Post-emergence action against ECHCG in % (ECHCG): 80%; Pre-emergence action against STEME in % (STEME [12]; 320 g/ha): 80% |
| COC(=O)COc1nn(-c2ccc(F)cc2)c(-c2ccc(F)cc2)c1Cl [I-006] | 80 |  | 80 | 80 |  | 100 | very good herbicidal efficacy | 80 |  | 90 |  |  |  | 80 | 100 | 100 |  | Pre-emergence action at 1280 g/ha against CYPES in % (CYPES): 100% |
| COC(=O)COc1nn(-c2ccccc2)c(-c2ccc(F)cc2)c1Cl [I-008] |  | 90 | 90 |  | 80 | 80 |  | 90 | 90 |  | 90 | 90 | good herbicidal efficacy | 100 | 100 | 100 | 100 | Post-emergence action against MATIN in % (MATIN [5]; 320 g/ha): 90%; Pre-emergence action against SETVI in % (SETVI [14]): 90%; Pre-emergence action against POLCO in % (POLCO [15]): 80%; Post-emergence action against POLCO in % (POLCO [16]): 80% |
